# Like-named read-outs stand apart in the source and are kept apart here.
# Columns and labels:
# Parameters in all cases: expressed in transfected cells
# α3β3γ2 GABAA/BzR = α3β3γ2 GABAA/BzR (Homo sapiens, UniProt P18507+P34903); test: Competition binding to HEK cell membranes, α3β3γ2; settings: read-out: Ki α3
# α1β3γ2 GABAA/BzR = α1β3γ2 GABAA/BzR (Homo sapiens, UniProt P14867+P18507); test: Competition binding to HEK cell membranes, α1β3γ2
# α5β3γ2 GABAA/BzR = α5β3γ2 GABAA/BzR (Homo sapiens, UniProt P18507+P31644); test: Competition binding to HEK cell membranes, α5β3γ2; settings: read-out: Ki α5
# α6β3γ2 GABAA/BzR = α6β3γ2 GABAA/BzR (Homo sapiens, UniProt P18507+Q16445); test: Competition binding to HEK cell membranes, α6β3γ2
# α2β3γ2 GABAA/BzR = α2β3γ2 GABAA/BzR (Homo sapiens, UniProt P18507+P47869); test: Competition binding to HEK cell membranes, α2β3γ2; settings: read-out: Ki α2
smiles,measurement,setting,value
C[Si](C)(C)C#Cc1ccc2c(c1)C(c1ccccc1F)=NCC(=O)N2 [JYI-55],Ki,α3β3γ2 GABAA/BzR,0.504 nM
same,Ki,α1β3γ2 GABAA/BzR; read-out: Ki α1,41.4 nM
same,Ki,α5β3γ2 GABAA/BzR,24.8 nM
"CCOc1cc2c(cn1)[nH]c1ccccc12 [3 EBC, 3-Ethoxy-beta-carboline]",Ki,α3β3γ2 GABAA/BzR,28.2 nM
same,Ki,α6β3γ2 GABAA/BzR; Ki α6,1000 nM
same,Ki,α5β3γ2 GABAA/BzR,826 nM
CC(C)(C)OC(=O)c1ncn2c1[C@@H]1CCCN1C(=O)c1cc(-c3cccs3)ccc1-2 [JYI-19],Ki,α1β3γ2 GABAA/BzR; read-out: Ki α1,2.18 nM
same,Ki,α6β3γ2 GABAA/BzR; read-out: Ki α6,12.7 nM
same,Ki,α2β3γ2 GABAA/BzR,205 nM
same,Ki,α5β3γ2 GABAA/BzR,34 nM
CCOC(=O)c1ncc2[nH]c3ccc(OCc4cccc5ccccc45)cc3c2c1COC [EDC-II-044],Ki,α3β3γ2 GABAA/BzR,293 nM
same,Ki,α1β3γ2 GABAA/BzR; read-out: Ki α1,15.4 nM
same,Ki,α6β3γ2 GABAA/BzR; read-out: Ki α6,1000 nM
same,Ki,α5β3γ2 GABAA/BzR,323 nM
O=C(OCC(F)(F)F)c1ncn2c1CN=C(c1ccccc1F)c1cc(Br)ccc1-2 [JYI-49],Ki,α1β3γ2 GABAA/BzR; read-out: Ki α1,1.87 nM
same,Ki,α6β3γ2 GABAA/BzR; read-out: Ki α6,3390 nM
same,Ki,α2β3γ2 GABAA/BzR,2.38 nM
same,Ki,α5β3γ2 GABAA/BzR,6.7 nM
C#Cc1ccc2c(c1)C(c1ccccc1F)=NCc1nnc(C)n1-2 [JYI-70],Ki,α1β3γ2 GABAA/BzR; read-out: Ki α1,6.3 nM
same,Ki,α6β3γ2 GABAA/BzR; read-out: Ki α6,5000 nM
same,Ki,α2β3γ2 GABAA/BzR,2.1 nM
same,Ki,α5β3γ2 GABAA/BzR,0.56 nM
CN1CCN(C=C2N=C3CN=C(c4ccccc4)c4cc(Br)ccc4N3C2=O)CC1 [PS-1-35],Ki,α3β3γ2 GABAA/BzR,24.4 nM
same,Ki,α2β3γ2 GABAA/BzR,16 nM
O=C(O)c1ncn2c1CN=C(c1ccccc1F)c1cc(Br)ccc1-2 [JYI-47],Ki,α3β3γ2 GABAA/BzR,0.511 nM
same,Ki,α1β3γ2 GABAA/BzR; read-out: Ki α1,2.76 nM
same,Ki,α2β3γ2 GABAA/BzR,2.28 nM
same,Ki,α5β3γ2 GABAA/BzR,0.427 nM
S=C=Nc1ccc2[nH]c3cnc(N=C=S)cc3c2c1 [EDC-I-093],Ki,α1β3γ2 GABAA/BzR; read-out: Ki α1,13.6 nM
same,Ki,α6β3γ2 GABAA/BzR; read-out: Ki α6,5000 nM
same,Ki,α2β3γ2 GABAA/BzR,423 nM
same,Ki,α5β3γ2 GABAA/BzR,2910 nM
C#Cc1ccc2c(c1)C(c1ccccc1F)=NCc1c(C(=O)OCC(F)(F)F)ncn1-2 [JYI-59 (C22H13N3O2F4)],Ki,α6β3γ2 GABAA/BzR; read-out: Ki α6,5000 nM
same,Ki,α2β3γ2 GABAA/BzR,2.6 nM
COc1ccc(-n2nc3c4ccc(OC)cc4[nH]cc-3c2=O)cc1 [PZII-029],Ki,α3β3γ2 GABAA/BzR,0.79 nM
same,Ki,α1β3γ2 GABAA/BzR; read-out: Ki α1,0.34 nM
same,Ki,α6β3γ2 GABAA/BzR; read-out: Ki α6,10 nM
same,Ki,α5β3γ2 GABAA/BzR,0.52 nM
O=C(OCC(F)(F)F)c1ncn2c1C1CCCN1C(=O)c1cc(-c3ccco3)ccc1-2 (centres unmarked) [JYI-13],Ki,α1β3γ2 GABAA/BzR; read-out: Ki α1,5000 nM
same,Ki,α6β3γ2 GABAA/BzR; read-out: Ki α6,8.38 nM
same,Ki,α2β3γ2 GABAA/BzR,63.7 nM
same,Ki,α5β3γ2 GABAA/BzR,16 nM
O=C(OCC(F)(F)F)c1ncn2c1[C@@H]1CCCN1C(=O)c1ccccc1-2 [JYI-14],Ki,α1β3γ2 GABAA/BzR; read-out: Ki α1,32 nM
same,Ki,α6β3γ2 GABAA/BzR; read-out: Ki α6,565 nM
same,Ki,α2β3γ2 GABAA/BzR,25 nM
same,Ki,α5β3γ2 GABAA/BzR,13 nM
Cc1nnc2n1-c1ccc(C#C[Si](C)(C)C)cc1C(c1ccccc1F)=NC2 [JYI-72],Ki,α1β3γ2 GABAA/BzR; read-out: Ki α1,48.5 nM
same,Ki,α2β3γ2 GABAA/BzR,18.5 nM
same,Ki,α5β3γ2 GABAA/BzR,11.5 nM
C[Si](C)(C)C#Cc1ccc2c(c1)C(=O)N1CCC[C@H]1c1c(C(=O)OCC(F)(F)F)ncn1-2 [JYI-11],Ki,α1β3γ2 GABAA/BzR; read-out: Ki α1,5000 nM
same,Ki,α6β3γ2 GABAA/BzR; read-out: Ki α6,3.97 nM
same,Ki,α2β3γ2 GABAA/BzR,5000 nM
same,Ki,α5β3γ2 GABAA/BzR,648 nM
C#Cc1ccc2c(c1)C(c1ccccc1F)=N[C@@H](C)c1c(C(=O)OCC)ncn1-2 [SH-O53-S-CH3-2′F],Ki,α6β3γ2 GABAA/BzR; Ki α6,5000 nM
C=Cc1ccc2c(c1)C(=O)N1CCC[C@H]1c1c(C(=O)OC(C)(C)C)ncn1-2 [JYI-04],Ki,α1β3γ2 GABAA/BzR; read-out: Ki α1,28.3 nM
same,Ki,α6β3γ2 GABAA/BzR; read-out: Ki α6,1.57 nM
same,Ki,α2β3γ2 GABAA/BzR,16 nM
same,Ki,α5β3γ2 GABAA/BzR,0.51 nM
O=C1CN=C(c2cccs2)c2cc(Br)ccc2N1 [JC184],Ki,α1β3γ2 GABAA/BzR; read-out: Ki α1,9.61 nM
same,Ki,α2β3γ2 GABAA/BzR,10.5 nM
same,Ki,α5β3γ2 GABAA/BzR,6.71 nM
CCOC(=O)c1ncn2c1CN=C(c1ccccc1F)c1cc(-c3ccco3)ccc1-2 [JYI-48],Ki,α3β3γ2 GABAA/BzR,12.8 nM
same,Ki,α1β3γ2 GABAA/BzR; read-out: Ki α1,75.6 nM
same,Ki,α2β3γ2 GABAA/BzR,90.7 nM
same,Ki,α5β3γ2 GABAA/BzR,31.3 nM
C=Cc1ccc2c(c1)C(=O)N1CCC[C@H]1c1c(C(=O)OCC(F)(F)F)ncn1-2 [JYI-12],Ki,α1β3γ2 GABAA/BzR; read-out: Ki α1,91 nM
same,Ki,α6β3γ2 GABAA/BzR; read-out: Ki α6,6.8 nM
same,Ki,α2β3γ2 GABAA/BzR,39 nM
same,Ki,α5β3γ2 GABAA/BzR,4.5 nM
"O=C1C2C=Nc3ccccc3C2=NN1c1ccc(Cl)cc1 (centres unmarked) [CGS9896, reference compound]",Ki,α1β3γ2 GABAA/BzR; Ki α1,0.28 nM
same,Ki,α6β3γ2 GABAA/BzR; Ki α6,181 nM
CN(C)C=C1N=C2CN=C(c3ccccc3)c3cc(Br)ccc3N2C1=O [PS-1-34B],Ki,α3β3γ2 GABAA/BzR,3.93 nM
same,Ki,α2β3γ2 GABAA/BzR,4.2 nM
O=C(OCC(F)(F)F)c1ncn2c1C1CCCN1C(=O)c1cc(Br)ccc1-2 (centres unmarked) [JYI-10],Ki,α1β3γ2 GABAA/BzR; read-out: Ki α1,5000 nM
same,Ki,α6β3γ2 GABAA/BzR; read-out: Ki α6,23 nM
same,Ki,α2β3γ2 GABAA/BzR,368 nM
same,Ki,α5β3γ2 GABAA/BzR,12.3 nM

# — publication PMC4657098, “A Review of the Updated Pharmacophore for the Alpha 5 GABA(A) Benzodiazepine Receptor Model” (International Journal of Medicinal Chemistry, 2015)
